Test results taken from US20060003030A1, “Essential oils for treating and/ or preventing allergic disease” (priority 2004, published 2006).
≈ marks a conversion by molar mass, not a printed value.

How the values were obtained:
[1] = system: PAF-induced platelet aggregation; assay: Inhibitory activity of essential oils on PAF-induced platelet aggregation; assay type: cell-based, New Zealand rabbit; conditions: rabbit washed platelet suspension, PAF added 2 min after sample, aggregation observed 4 min
Protocol: The anticoagulant “acid-citrate-dextrose” (ACD) was added to the blood taken from a New Zealand rabbit in a ratio of 1:6 by volume. The resulting blood was centrifuged at 190 g for 15 min at room temperature. After centrifugation, the supernatant containing platelet-rich plasma (PRP) was taken and 0.2 M EDTA was added. The resulting supernatant was centrifuged at 1000 g for 1.5 min. After centrifugation, the pellet containing RBC and WBC was removed and then PRP was centrifuged at 1000 g for 11 min. After centrifugation, the supernatant was removed and the platelet pellet was suspended in Ca^2+--free Tyrode's buffer (containing 1 mM Ca2+). […] The turbidity was determined with a Platelet Aggregation Chromogenic Kinetic System.
0.5 ml of platelet suspension was added to silicon-coated cuvette and put in a Platelet Aggregation Chromogenic Kinetic System and bathed for 2 min at 37° C. […] The ratio of aggregation was calculated by the following formula: Ratio of aggregation %=(absorptivity before adding PAF−absorptivity after adding PAF/(absorptivity before adding PAF−absorptivity of Tyrode's buffer)×100% The ratio of inhibition was calculated by the following formula: Ratio of inhibition %=100%−(ratio of aggregation of sample/ratio of aggregation of control×100%)

[2] = system: mouse macrophage cell line RAW 264.7; assay: Inhibitory effect of essential oils on NO production by LPS-activated mouse macrophage cell line (Griess reagent); assay type: cell-based; conditions: positive control, concentration not given; LPS (Inducer) 60 ± 0.5, Blank 3.5 ± 0.3
Protocol: The mouse macrophage cell line RAW 264.7 was purchased from Bioresources Collection & Research Center, Taiwan and numbered CCRC 60001. The cells were added to Dulbecco's Modified Eagle Medium (DMEM, GibcoBRL) containing 10% (v/v) fetal bovine serum (FBS, GibcoBRL) and then incubated in a CO2 incubator containing 5% CO2 at 37° C. The cells grow to 90% density and are then washed with phosphate buffered saline (PBS). The cells were colleted and diluted with fresh DMEM to the appropriate concentration.
The mouse macrophage cells were transferred in a 96-well plate in a concentration of 10,000 cells/well. After incubating for 24 hours, the cells were activated with the medium containing 100 μg/ml Lipopolysaccharide (LPS, SIGMA) and 100·μg/ml Interferon-γ (INF-γ, GibcoBRL). Meanwhile, the essential oils of herbal medicine in different concentrations were added to the wells. After incubating for 24 hours, 50 μl of supernatants were respectively taken and put into a 96-well plate. […] Then, the absorbance of the resulting cell supernatants was determined with a microplate reader at a wavelength of […]. The percentage of nitric oxide can be calculated by the following formula: % nitric oxide=(sample absorptivity/control absorptivity)×100%.

Compound	IC50 [1]	Nitric oxide [2]
CCCCCCCCCCCCCCCCCCNC(=O)OCC(COP(=O)([O-])OCC[n+]1ccsc1)OC (centres unmarked) [CV-3988]	1.42 mg/mL (≈ 2400 µM)	–
CNC(=N)NCCC[C@H](N)C(=O)O [L-NMMA]	–	25 ± 0.6 µM
